Results taken from the NIST ThermoML archive (doi:10.1016/j.jct.2004.09.014).

Assay: xn = mol fraction of the nth substance listed
Conditions: 101.3 kPa, Liquid

COCCOCCO [2-(2-methoxyethoxy)ethanol] + CCOC(C)(C)C
mass density [kg/m3]
Conditions | 293.15 K | 298.15 K | 303.15 K | 308.15 K | 313.15 K
x2 = 0 | 1020.8 | 1016.4 | 1011.83 | 1007.69 | 1003.22
x2 = 0.0501 | 1008.17 | 1003.25 | 998.3 | 993.76 | 988.94
x2 = 0.1 | 995.15 | 990.04 | 984.9 | 980.19 | 975.19
x2 = 0.1459 | 982.68 | 977.43 | 972.25 | 967.46 | 962.35
x2 = 0.1998 | 967.77 | 962.42 | 957.22 | 952.39 | 947.16
x2 = 0.2556 | 951.99 | 946.59 | 941.41 | 936.49 | 931.19
x2 = 0.3031 | 938.38 | 932.91 | 927.71 | 922.72 | 917.37
x2 = 0.3521 | 924.22 | 918.7 | 913.47 | 908.42 | 902.96
x2 = 0.4004 | 910.16 | 904.58 | 899.35 | 894.26 | 888.75
x2 = 0.4511 | 895.34 | 889.68 | 884.41 | 879.28 | 873.72
x2 = 0.4998 | 881.09 | 875.34 | 870.08 | 864.91 | 859.34
x2 = 0.5628 | 862.65 | 856.89 | 851.64 | 846.47 | 840.9
x2 = 0.5997 | 851.96 | 846.15 | 840.91 | 835.75 | 830.21
x2 = 0.6621 | 833.91 | 828.16 | 822.99 | 817.83 | 812.29
x2 = 0.6997 | 823.14 | 817.44 | 812.33 | 807.17 | 801.6
x2 = 0.7411 | 811.55 | 805.81 | 800.69 | 795.54 | 790.02
x2 = 0.7995 | 795.39 | 789.63 | 784.53 | 779.35 | 773.85
x2 = 0.8401 | 784.28 | 778.52 | 773.45 | 768.28 | 762.75
x2 = 0.8998 | 768.16 | 762.41 | 757.39 | 752.25 | 746.7
x2 = 0.9498 | 754.72 | 748.99 | 744.04 | 738.99 | 733.52

COCCOCCOCCO [2-[2-(2-methoxyethoxy)ethoxy]ethanol] + CCOC(C)(C)C
mass density [kg/m3]
Conditions | 293.15 K | 298.15 K | 303.15 K | 308.15 K | 313.15 K
x2 = 0 | 1047.29 | 1042.97 | 1038.65 | 1034.33 | 1030.01
x2 = 0.0504 | 1037.46 | 1032.75 | 1028.05 | 1023.44 | 1018.75
x2 = 0.1 | 1026.36 | 1021.48 | 1016.59 | 1011.83 | 1006.97
x2 = 0.1509 | 1014.18 | 1009.14 | 1004.22 | 999.35 | 994.34
x2 = 0.2025 | 1000.97 | 995.85 | 990.92 | 985.93 | 980.82
x2 = 0.2489 | 988.73 | 983.55 | 978.6 | 973.56 | 968.35
x2 = 0.3007 | 974.54 | 969.31 | 964.34 | 959.27 | 953.99
x2 = 0.3511 | 960.3 | 954.96 | 949.94 | 944.86 | 939.57
x2 = 0.3999 | 946.13 | 940.72 | 935.65 | 930.52 | 925.15
x2 = 0.4508 | 930.95 | 925.44 | 920.33 | 915.15 | 909.71
x2 = 0.5001 | 915.87 | 910.23 | 905.09 | 899.84 | 894.39
x2 = 0.5493 | 900.4 | 894.71 | 889.55 | 884.29 | 878.77
x2 = 0.6 | 884.14 | 878.36 | 873.18 | 867.9 | 862.36
x2 = 0.6503 | 867.65 | 861.88 | 856.69 | 851.4 | 845.82
x2 = 0.6998 | 851.17 | 845.39 | 840.21 | 834.91 | 829.29
x2 = 0.7491 | 834.48 | 828.67 | 823.52 | 818.24 | 812.58
x2 = 0.7999 | 816.94 | 811.16 | 806.01 | 800.74 | 795.06
x2 = 0.8509 | 798.94 | 793.17 | 788.08 | 782.84 | 777.19
x2 = 0.9001 | 780.97 | 775.22 | 770.16 | 764.98 | 759.37
x2 = 0.9498 | 761.89 | 756.2 | 751.24 | 746.17 | 740.68

CCOC(C)(C)C [2-ethoxy-2-methylpropane] + COCCO
mass density [kg/m3]
Conditions | 293.15 K | 298.15 K | 303.15 K | 308.15 K | 313.15 K
x1 = 0.0501 | 950.05 | 944.7 | 939.45 | 934.22 | 928.99
x1 = 0.1 | 936.06 | 930.57 | 925.31 | 919.94 | 914.61
x1 = 0.1508 | 921.99 | 916.4 | 911.08 | 905.73 | 900.29
x1 = 0.2 | 908.51 | 902.92 | 897.66 | 892.25 | 886.78
x1 = 0.2512 | 894.84 | 889.15 | 883.86 | 878.57 | 873.09
x1 = 0.299 | 882.19 | 876.57 | 871.27 | 865.98 | 860.41
x1 = 0.3489 | 869.14 | 863.45 | 858.24 | 852.9 | 847.36
x1 = 0.4 | 856.06 | 850.34 | 845.06 | 839.8 | 834.21
x1 = 0.4503 | 843.79 | 837.98 | 832.77 | 827.45 | 821.87
x1 = 0.499 | 832.46 | 826.63 | 821.36 | 816.1 | 810.51
x1 = 0.55 | 821.14 | 815.31 | 810.08 | 804.81 | 799.19
x1 = 0.61 | 808.56 | 802.72 | 797.49 | 792.22 | 786.6
x1 = 0.6599 | 798.66 | 792.76 | 787.53 | 782.25 | 776.65
x1 = 0.7 | 790.96 | 785.07 | 779.87 | 774.61 | 769.03
x1 = 0.7511 | 781.59 | 775.75 | 770.56 | 765.33 | 759.73
x1 = 0.8 | 773.01 | 767.18 | 762.01 | 756.8 | 751.25
x1 = 0.8489 | 764.84 | 759.04 | 753.94 | 748.76 | 743.21
x1 = 0.9 | 756.5 | 750.81 | 745.76 | 740.66 | 735.16
x1 = 0.949 | 748.89 | 743.23 | 738.32 | 733.24 | 727.78
x1 = 1 | 741.11 | 735.59 | 730.85 | 725.98 | 720.69
